This passage reports TGI results from PubChem BioAssay (NCI).

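Five concentrations, 48 hours, 96-well plates. TGI is the concentration that stops growth completely.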 Some results are limits rather than exact numbers.

What all share (experiment): DTP human tumour cell line panel, 48 h
The test system of test [1] is OVCAR-5 ovarian.
Test [2] has as its system U251 CNS.
For test [3], the system named is MALME-3M melanoma.
Test [4] deals with SF-539 CNS.
The test system of test [5] is RPMI-8226 leukemia.
The test system of test [6] is SK-MEL-5 melanoma.
Test [7] deals with IGROV1 ovarian.
The subject of test [8] is HOP-62 NSCLC.
Test [9] relates to BT-549 breast.
Test [10] has as its system LOX IMVI melanoma.
Test [11] relates to KM12 colon.
In test [12] the test system is CCRF-CEM leukemia.
Test [13] deals with SK-OV-3 ovarian.
Test [14] has as its system NCI-H460 lung.
Test [15] relates to COLO 205 colon.
The subject of test [16] is ACHN renal.
Test [17] has as its system HCT-116 colon.
Test [18] concerns UACC-62 melanoma.
Test [19] relates to OVCAR-3 ovarian.
Test [20] has as its system T-47D breast.

For `NCCc1ccc2c(c1)C(=O)c1c(O)ccc(O)c1C2=O`, the TGI in test [1] was over 87 µM; in test [2] it was over 30.9 µM; in [3], 4.75 µM; in test [4], 7.97 µM; in test [5], over 100 µM; in test [6], 3.94 µM. The concentration for total growth inhibition (TGI) is over 100 µM in test [7]; 13.4 µM in [8]; over 100 µM in test [9]; over 100 µM in test [10]; over 100 µM in test [11]; over 100 µM in test [12]. Moreover, the concentration for total growth inhibition (TGI) in test [13] is 22.2 µM; in test [14] it was over 87.6 µM; in test [15], over 100 µM; in [16], over 53.6 µM; in test [17], over 40.3 µM; in test [18], 39.7 µM. In addition, the TGI in test [19] was found to be 5.66 µM.

`Nc1cnc2c(c1)c(=O)nc1n2CCS1`: the TGI in test [1], in [2], in test [3], in test [4], in test [5] and in test [6] was over 100 µM throughout. Besides, the total growth inhibition concentration (TGI) in test [8], in [9], in [10], in test [11], in test [12] and in test [13] was over 100 µM throughout. For the same compound, the concentration for total growth inhibition (TGI) in [14], in [15], in [16], in [17], in test [18] and in test [19] was over 100 µM in each case.

With `CCCCCCCCCC(=O)CC(=O)c1c(O)cc(O)cc1O`, the total growth inhibition concentration (TGI) is 48.2 µM in test [1]; over 75 µM in test [2]; 32.1 µM in test [3]; 43.3 µM in test [4]; 37.1 µM in test [5]; 28.6 µM in test [6]. Also, the TGI in [7] is over 75 µM; in [8] it was 32.5 µM; in test [10] it was 35.4 µM; in [11], 42.8 µM; in [12], over 75 µM; in [13] it was over 75 µM. Also, the TGI in [15] is over 75 µM; in test [16], over 75 µM; in [17], over 75 µM; in [20], over 75 µM; in test [19], 53.2 µM.

Regarding `O=C(NC/C(Cl)=C/Cl)Nc1cccc2c1CCCC2`, the TGI in [1], in test [2], in test [3], in test [4], in [5] and in test [6] was over 100 µM in each case. The TGI in test [7], in [8], in [10], in test [11], in test [13] and in test [14] was over 100 µM each time. Besides, the TGI in test [15], in [16], in [17], in test [20], in [18] and in [19] was over 100 µM throughout.

For the compound `O=c1cc(-c2ccccc2Cl)[nH]c2cc3c(cc12)OCO3`, the TGI in test [1] was over 100 µM; in test [2] it was 1.25 µM; in [3], over 100 µM; in test [4], 0.458 µM; in test [5] it was 0.565 µM; in test [6], 2.03 µM. The TGI is over 37.5 µM in [7]; 11.3 µM in test [8]; 11.9 µM in test [10]; over 31.6 µM in [11]; 0.381 µM in test [12]; 11.4 µM in [13]. For the same compound, the total growth inhibition concentration (TGI) in test [14] is 5.24 µM; in test [15], 0.195 µM; in [16], over 73.9 µM; in test [17], 16 µM; in [20] it was over 100 µM; in test [18], 15.7 µM. In test [19], this compound returned a TGI of 0.4 µM.

Consider `CC1CC(NN(C)C)C2(C(N)=O)C(N)=NC(=O)C12C#N` (stereo not drawn), for which the TGI in test [1], in [2], in [3], in test [4], in test [5] and in [6] was over 100 µM in each case. For the same compound, the concentration for total growth inhibition (TGI) in test [7], in test [8], in [10], in [11], in [12] and in test [13] was over 100 µM in each case. The total growth inhibition concentration (TGI) in [15], in test [16], in test [17], in test [20] and in [18] was over 100 µM each time.

Regarding `Cc1cc(Br)cc(C)c1NC(=O)C(=O)C1C(=O)C(CC2C(=O)c3ccccc3C2=O)C(=O)CC1(C)C` (stereo not drawn), the TGI in test [1], in test [2], in test [4], in test [6], in test [7] and in test [8] was over 100 µM each time. For the same compound, the TGI was over 100 µM in test [9]; over 100 µM in test [10]; over 100 µM in test [11]; 95.7 µM in test [12]; over 100 µM in test [13]; over 100 µM in [14]. Also, the TGI in [15], in [16], in test [17], in test [18] and in [19] was over 100 µM throughout.

For the compound `O=C1/C(=C\c2c(-c3ccccc3)nn(-c3ccccc3)c2O)C(c2ccccc2)=NN1c1ccccc1`, the TGI in test [1], in test [2], in test [3], in [4], in test [5] and in test [7] was over 100 µM in each case. The TGI in [8], in [10], in test [11], in test [12], in test [13] and in test [14] was over 100 µM each time. Moreover, the TGI in test [15], in [16], in test [17], in test [20], in test [18] and in test [19] was over 100 µM in each case.

Take `COc1ccc2c(c1)c1c3c(ccc4ncn2c43)N(CCN(C)C)CCN=1`: the TGI in [1] came to 2.83 µM; in [2], 1.41 µM; in [3], 2.67 µM; in test [4], 1.1 µM; in test [5] it was 2.48 µM; in [6], 2.31 µM. Further, the concentration for total growth inhibition (TGI) in [7] was 4.37 µM; in test [8] it was 1.73 µM; in test [10], 1.53 µM; in [11], 1.7 µM; in [12] it was 1.09 µM; in test [13], 4.04 µM. In addition, the TGI in test [14] was found to be 0.76 µM; in test [15], 1.83 µM; in test [16], 5.39 µM; in test [17], 1.52 µM; in test [20], 6.05 µM; in test [18], 1.78 µM. The total growth inhibition concentration (TGI) in test [19] amounted to 2.4 µM.

As to `c1ccc2c3nnc(c2c1)SCCSCCCSCCS3`, the concentration for total growth inhibition (TGI) was over 100 µM in test [1]; over 100 µM in test [2]; 77.3 µM in test [3]; 40.6 µM in [4]; over 100 µM in test [6]; over 100 µM in [7]. In addition, the TGI is 70.9 µM in [8]; over 100 µM in test [10]; over 100 µM in test [11]; over 100 µM in [12]; 97.5 µM in test [13]; over 100 µM in test [14]. Besides, the TGI in [15], in [16], in [17], in [20], in test [18] and in test [19] was over 100 µM in each case.

For `CCOC(=O)CC(N1CC1)N1CC1`, the concentration for total growth inhibition (TGI) in [1], in [2], in test [3], in [4], in test [5] and in test [6] was over 10 µM in each case. Moreover, the TGI in test [7], in test [8], in test [10], in test [11], in test [12] and in test [13] was over 10 µM in each case. The TGI in test [14], in test [15], in test [16], in test [17], in [20] and in [18] was over 10 µM each time. The concentration for total growth inhibition (TGI) in [19] was over 10 µM.

On to `CC[N+](CC)(CC)/C(=N/S(=O)(=O)c1cc(C)c(Cl)cc1S)[N-]S(=O)(=O)c1ccc(Cl)cc1`, for which the TGI in [1], in test [2], in test [4], in [5], in [6] and in test [7] was over 100 µM each time. The TGI in test [8], in test [10], in [11], in test [12], in test [13] and in test [14] was over 100 µM throughout. Besides, the TGI in [16] was over 100 µM; in test [17] it was 65.6 µM; in test [20], over 100 µM; in test [19], over 100 µM.

Consider `Cc1cc(=O)oc2c(CNC(C(=O)O)C(C)O)c(O)ccc12` (stereo not drawn), for which the TGI in test [1], in [2], in [3], in [4], in test [5] and in test [6] was over 100 µM in each case. Moreover, the TGI in [7], in test [8], in test [10], in test [11], in [12] and in test [13] was over 100 µM throughout. Besides, the concentration for total growth inhibition (TGI) in [14], in test [15], in [16], in test [17], in test [20] and in test [18] was over 100 µM each time. In test [19], this compound had a TGI of over 100 µM.

In the case of `COC(=O)CCc1ccc2c(c1)CC1(C2)Cc2ccc3c(c2C1)CCC3` (stereo not drawn), the TGI in test [2] was over 100 µM; in test [3], over 100 µM; in [4], over 100 µM; in test [5], over 100 µM; in [6], 90.9 µM; in test [7] it was over 100 µM. Further, the TGI in test [8], in test [10], in test [11], in [12], in [13] and in test [14] was over 100 µM each time. The TGI in test [15], in [16], in [17], in [20], in test [18] and in test [19] was over 100 µM throughout.

Regarding `COC(=O)/C(=C\C(=O)c1ccc(Br)cc1)NN=C(c1ccccc1)c1ccccc1`, the TGI in test [3], in test [5], in test [6], in test [7], in test [8] and in test [10] was over 10 µM in each case. Further, the TGI in [11], in test [12], in [13], in [15], in [20] and in [18] was over 10 µM throughout.

In the case of `FC(F)(F)C1(C(F)(F)F)C2CCC3(CC(F)(F)C(F)(F)S3)C1C2` (stereo not drawn), the TGI is over 100 µM in test [1]; over 100 µM in test [2]; 95.1 µM in test [3]; over 100 µM in test [4]; 58.8 µM in test [5]; over 100 µM in test [6]. The TGI in test [7] is over 100 µM; in test [8] it was over 100 µM; in test [10] it was 47.4 µM; in test [11], over 100 µM; in test [12] it was 60.9 µM; in test [13] it was over 100 µM. For the same compound, the TGI in test [14] is over 100 µM; in test [15] it was 76.3 µM; in test [16], 98.5 µM; in test [17] it was 42.5 µM; in [20], over 100 µM; in [18], over 100 µM. The compound also came in with a TGI in [19] of 35.9 µM.
